How the values were obtained:
[1] = molecular target: GDP-bound KRAS wild-type protein (Homo sapiens, UniProt P01116); experiment: Binding to KRAS by surface plasmon resonance (SPR), dissociation constant KD; conditions: Single Cycle Kinetics
Procedure, shortened: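 Biotinylated GDP-bound RAS was captured at about 100–300 RU. Running buffer: HBS pH 7.4, 10 mM MgCl2, 10 µM GDP, 1 mM DTT, 0.01% Tween 20, 4% DMSO.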

[2] = molecular target: GDP-bound NRAS wild-type protein (Homo sapiens, UniProt P01111); experiment: Binding to NRAS by surface plasmon resonance (SPR), KD and KD ratio to KRAS; conditions: ratio of KD for GDP-bound NRAS wild-type protein to KD for KRAS
Sequence of GDP-bound NRAS wild-type protein (P01111 whole entry): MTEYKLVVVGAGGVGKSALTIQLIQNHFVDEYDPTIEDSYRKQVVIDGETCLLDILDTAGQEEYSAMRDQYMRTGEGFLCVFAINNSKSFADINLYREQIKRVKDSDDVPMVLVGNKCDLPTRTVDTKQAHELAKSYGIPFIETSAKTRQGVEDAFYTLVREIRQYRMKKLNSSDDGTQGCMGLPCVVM
Procedure, shortened: (§1)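 Affinity is measured by surface plasmon resonance at 30°C against captured, GDP-loaded RAS carrying a biotinylated Avi tag. Compounds are titrated by single-cycle kinetics, and KD comes from a 1:1 fit.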

HRAS wild-type protein = HRAS wild-type protein (Homo sapiens, UniProt P01112); experiment: Binding to HRAS by surface plasmon resonance (SPR), KD and KD ratio to KRAS; conditions: ratio of KD for HRAS wild-type protein to KD for KRAS
Sequence of HRAS wild-type protein (P01112 whole entry): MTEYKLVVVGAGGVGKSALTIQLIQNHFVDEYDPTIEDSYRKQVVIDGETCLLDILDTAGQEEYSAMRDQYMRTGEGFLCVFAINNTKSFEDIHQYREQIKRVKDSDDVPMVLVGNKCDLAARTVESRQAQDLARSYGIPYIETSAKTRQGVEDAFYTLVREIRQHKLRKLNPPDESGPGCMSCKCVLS
Procedure, shortened: as §1

[3] = tested on: human lung cancer strain NCI-H441; experiment: NCI-H441 cell proliferation inhibitory activity (CellTiter-Glo, 4 days); type: cell-based; conditions: NCI-H441 cells, 4 days, read-out: NCl-H441 IC50
Procedure, shortened: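 Readout: […] after the ATP-based reagent. Compound: serial dilutions in dimethyl sulfoxide.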

Sequence of GDP-bound KRAS wild-type protein (P01116 1-188 isoform P01116-2): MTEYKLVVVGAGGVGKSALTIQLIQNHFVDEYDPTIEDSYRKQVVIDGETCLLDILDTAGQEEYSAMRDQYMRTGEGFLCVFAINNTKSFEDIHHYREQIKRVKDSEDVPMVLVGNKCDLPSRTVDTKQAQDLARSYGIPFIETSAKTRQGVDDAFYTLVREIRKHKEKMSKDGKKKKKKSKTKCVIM

Structure (SMILES) | Kd [1] [nM] | IC50 [3] [nM] | NRAS /KRAS [2] | HRAS /KRAS (HRAS wild-type protein)
CCC[C@H]1C(=O)N[C@@H]([C@@H](C)CC)C(=O)N(C)CC(=O)N(C)[C@H]2C/C=C\CCN(C2=O)[C@@H](Cc2ccc(C(F)(F)F)cc2)C(=O)N(C)CC(=O)N[C@@H](CCc2ccc(C(F)(F)F)c(OC)c2)C(=O)N2CC[C@H](OC)[C@H]2C(=O)N(C)C2(CCC2)C(=O)N(C)[C@@H](C2CCCC2)C(=O)N(C)[C@H](C(=O)N(C)C)CC(=O)N1C [PP3243] | 0.066 | 5.3 | A (a compound having 10 or more and less than 20 is denoted as A) | A (a compound having 10 or more and less than 20 is denoted as A)
CCC[C@H]1C(=O)N[C@@H]([C@@H](C)CC)C(=O)N(C2CC2)CC(=O)N(C)[C@H]2C/C=C\CCN(C2=O)[C@@H](Cc2ccc(C)cc2)C(=O)N(C)CC(=O)N[C@@H](CCc2ccc(C(F)(F)F)c(OC)c2)C(=O)N2CC[C@H](OC)[C@H]2C(=O)N(C)C2(CCC2)C(=O)N(C)[C@@H](C2CCCC2)C(=O)N(C)[C@H](C(=O)N(C)C)CC(=O)N1C [PP3245] | 0.18 | 6.7 | A (a compound having 10 or more and less than 20 is denoted as A) | A (a compound having 10 or more and less than 20 is denoted as A)
C#CC[C@H]1C(=O)N[C@@H]([C@@H](C)CC)C(=O)N(C2CC2)CC(=O)N(C)[C@H]2C/C=C\CCN(C2=O)[C@@H](Cc2ccc(C(F)(F)F)cc2)C(=O)N(C)CC(=O)N[C@@H](CCc2ccc(C(F)(F)F)c(Cl)c2)C(=O)N2C[C@H](OCC)C[C@H]2C(=O)N(C)C2(CCC2)C(=O)N(C)[C@@H](C2CCCC2)C(=O)N(C)[C@H](C(=O)N(C)C)CC(=O)N1C [PP3246] | 0.086 | 3.8 | A (a compound having 10 or more and less than 20 is denoted as A) | A (a compound having 10 or more and less than 20 is denoted as A)
CCC[C@H]1C(=O)N[C@@H]([C@@H](C)CC)C(=O)N(C)CC(=O)N(C)[C@H]2C/C=C\CCN(C2=O)[C@@H](Cc2ccc(C)cc2)C(=O)N(C)CC(=O)N[C@@H](CCc2ccc(C(F)(F)F)c(OC)c2)C(=O)N2CC[C@H](OC)[C@H]2C(=O)N(C)C2(CCC2)C(=O)N(C)[C@@H](C2CCCC2)C(=O)N(C)[C@H](C(=O)N(C)C)CC(=O)N1C [PP3249] | 0.059 | 4.2 | A (a compound having 10 or more and less than 20 is denoted as A) | B (a compound having 3 or more and less than 10 is denoted as B)
C#CC[C@H]1C(=O)N[C@@H]([C@@H](C)CC)C(=O)N(C2CC2)CC(=O)N(C)[C@H]2C/C=C\CCN(C2=O)[C@@H](Cc2ccc(C)cc2)C(=O)N(C)CC(=O)N[C@@H](CCc2cc(F)c(C(F)(F)F)c(F)c2)C(=O)N2C[C@H](OCC)C[C@H]2C(=O)N(C)C2(CCC2)C(=O)N(C)[C@@H](C2CCCC2)C(=O)N(C)[C@H](C(=O)N(C)C)CC(=O)N1C [PP3250] | 0.1 | 2.8 | A (a compound having 10 or more and less than 20 is denoted as A) | B (a compound having 3 or more and less than 10 is denoted as B)
C#CC[C@H]1C(=O)N[C@@H]([C@@H](C)CC)C(=O)N(C2CC2)CC(=O)N(C)[C@H]2C/C=C\CCN(C2=O)[C@@H](Cc2ccc(C)cc2)C(=O)N(C)CC(=O)N[C@@H](CCc2ccc(C(F)(F)F)c(Cl)c2)C(=O)N2C[C@H](OCC)C[C@H]2C(=O)N(C)C2(CCC2)C(=O)N(C)[C@@H](C2CCCC2)C(=O)N(C)[C@H](C(=O)N(C)C)CC(=O)N1C [PP3251] | 0.12 | 4.1 | B (a compound having 3 or more and less than 10 is denoted as B) | B (a compound having 3 or more and less than 10 is denoted as B)
C#CC[C@H]1C(=O)N[C@@H]([C@@H](C)CC)C(=O)N2CCC[C@H]2C(=O)N(C)[C@H]2C/C=C\CCN(C2=O)[C@@H](Cc2ccc(C(F)(F)F)cc2)C(=O)N(C)CC(=O)N[C@@H](CCc2ccc(C(F)(F)F)c(OC)c2)C(=O)N2C[C@H](OCC)C[C@H]2C(=O)N(C)C2(CCC2)C(=O)N(C)[C@@H](C2CCCC2)C(=O)N(C)[C@H](C(=O)N(C)C)CC(=O)N1C [PP3252] | 0.082 | 4.5 | A (a compound having 10 or more and less than 20 is denoted as A) | A (a compound having 10 or more and less than 20 is denoted as A)
C#CC[C@H]1C(=O)N[C@@H]([C@@H](C)CC)C(=O)N2CCC[C@H]2C(=O)N(C)[C@H]2C/C=C\CCN(C2=O)[C@@H](Cc2ccc(C(F)(F)F)cc2)C(=O)N(C)CC(=O)N[C@@H](CCc2ccc(C(F)(F)F)c(Cl)c2)C(=O)N2C[C@H](OCC)C[C@H]2C(=O)N(C)C2(CCC2)C(=O)N(C)[C@@H](C2CCCC2)C(=O)N(C)[C@H](C(=O)N(C)C)CC(=O)N1C [PP3254] | 0.086 | 3.6 | A (a compound having 10 or more and less than 20 is denoted as A) | B (a compound having 3 or more and less than 10 is denoted as B)

Further lines, with some results ahead:

Kd [1] [nM] | IC50 [3] [nM] | Structure (SMILES) | NRAS /KRAS [2] | HRAS /KRAS (HRAS wild-type protein)
0.1 | 1.9 | C#CC[C@H]1C(=O)N[C@@H]([C@@H](C)CC)C(=O)N(C2CC2)CC(=O)N(C)[C@H]2C/C=C\CCN(C2=O)[C@@H](Cc2ccc(C(F)(F)F)cc2)C(=O)N(C)CC(=O)N[C@@H](CCc2cc(F)c(C(F)(F)F)c(F)c2)C(=O)N2C[C@H](OCC)C[C@H]2C(=O)N(C)C2(CCC2)C(=O)N(C)[C@@H](C2CCCC2)C(=O)N(C)[C@H](C(=O)N(C)C)CC(=O)N1C [PP3244] | A (a compound having 10 or more and less than 20 is denoted as A) | A (a compound having 10 or more and less than 20 is denoted as A)
0.22 | 5.3 | CCC[C@H]1C(=O)N[C@@H]([C@@H](C)CC)C(=O)N2CCC[C@H]2C(=O)N(C)[C@H]2C/C=C\CCN(C2=O)[C@@H](Cc2ccc(C)cc2)C(=O)N(C)CC(=O)N[C@@H](CCc2ccc(C(F)(F)F)c(OC)c2)C(=O)N2CC[C@H](OC)[C@H]2C(=O)N(C)C2(CCC2)C(=O)N(C)[C@@H](C2CCCC2)C(=O)N(C)[C@H](C(=O)N(C)C)CC(=O)N1C [PP3247] | A (a compound having 10 or more and less than 20 is denoted as A) | B (a compound having 3 or more and less than 10 is denoted as B)
0.078 | 4.5 | C#CC[C@H]1C(=O)N[C@@H]([C@@H](C)CC)C(=O)N(C2CC2)CC(=O)N(C)[C@H]2C/C=C\CCN(C2=O)[C@@H](Cc2ccc(C)cc2)C(=O)N(C)CC(=O)N[C@@H](CCc2ccc(C(F)(F)F)c(OC)c2)C(=O)N2C[C@H](OCC)C[C@H]2C(=O)N(C)C2(CCC2)C(=O)N(C)[C@@H](C2CCCC2)C(=O)N(C)[C@H](C(=O)N(C)C)CC(=O)N1C [PP3248] | A (a compound having 10 or more and less than 20 is denoted as A) | A (a compound having 10 or more and less than 20 is denoted as A)
0.088 | 2.9 | C#CC[C@H]1C(=O)N[C@@H]([C@@H](C)CC)C(=O)N2CCC[C@H]2C(=O)N(C)[C@H]2C/C=C\CCN(C2=O)[C@@H](Cc2ccc(C(F)(F)F)cc2)C(=O)N(C)CC(=O)N[C@@H](CCc2cc(F)c(C(F)(F)F)c(F)c2)C(=O)N2C[C@H](OCC)C[C@H]2C(=O)N(C)C2(CCC2)C(=O)N(C)[C@@H](C2CCCC2)C(=O)N(C)[C@H](C(=O)N(C)C)CC(=O)N1C [PP3253] | A (a compound having 10 or more and less than 20 is denoted as A) | B (a compound having 3 or more and less than 10 is denoted as B)

— patent EP4603105A1, “PHARMACEUTICAL COMPOSITION CONTAINING CYCLIC COMPOUND HAVING SELECTIVE KRAS INHIBITORY EFFECT AGAINST HRAS AND NRAS” (CHUGAI SEIYAKU KABUSHIKI KAISHA, priority 2022, dated 2024)
